This is an account of results in US10988474B2, “Compounds acting at multiple prostaglandin receptors giving a general anti-inflammatory response” (ALLERGAN, INC., priority 2011, dated 2021).

By Kb is commonly meant the affinity of an antagonist, worked out from how it opposes an agonist.

Holding throughout (assay type): cell-based
Test [1] deals with T1, human prostanoid EP1 receptor (Homo sapiens, UniProt P34995).
T1 construct: expressed in transfected cells
T1 sequence (P34995 1-402): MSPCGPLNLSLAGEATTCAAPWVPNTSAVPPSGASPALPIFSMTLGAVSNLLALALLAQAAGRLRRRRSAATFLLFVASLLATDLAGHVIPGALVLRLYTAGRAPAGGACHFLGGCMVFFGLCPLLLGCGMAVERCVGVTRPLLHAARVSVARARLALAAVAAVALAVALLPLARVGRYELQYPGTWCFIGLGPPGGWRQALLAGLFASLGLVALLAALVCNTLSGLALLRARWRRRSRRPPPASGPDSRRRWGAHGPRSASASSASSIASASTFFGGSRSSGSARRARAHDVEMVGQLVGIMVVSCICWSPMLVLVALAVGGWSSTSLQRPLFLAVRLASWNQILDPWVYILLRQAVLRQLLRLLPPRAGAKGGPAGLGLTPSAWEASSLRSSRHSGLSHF
The test is described as follows: FLIPR Ca2+ signaling PG antagonist assay, EP1 stable cell line. The settings on record: HEK-293 EBNA cells, human recombinant EP1, no exogenous G-protein; standard agonist PGE2. How it is done: (§1) The above compounds were tested for PG antagonist activity as follows using human recombinant prostanoid receptor (DP1, EP1-4, FP, IP and TP) stable cell lines: In order to measure the response of Gs and Gi coupled prostanoid receptors as a Ca^2+ signal, chimeric G protein cDNAs were used. Stable cell lines over-expressing human prostanoid DP1, EP1-4, FP, IP, and TP receptors were established as follows:
(§2) Briefly, human prostanoid DP1, EP2, and EP4 receptor cDNAs were co-transfected with chimeric Gqs cDNA containing a haemagglutanin (HA) epitope; human prostanoid EP3 receptors were co-transfected with chimeric Gqi-HA; human EP1, FP, IP, and TP receptor cDNAs were expressed with no exogenous G-proteins. Gqs and Gqi chimeric cDNAs (Molecular Devices, Sunnyvale, Calif., U.S.A.), as well as cDNAs of prostanoid receptors, were cloned into a pCEP4 vector with a hygromycin B selection marker. Transfection into HEK-293 EBNA (Epstein-Barr virus nuclear antigen) cells was achieved by the FuGENE 6 transfection Reagent (Roche Applied Science, Indianapolis, Ind., USA). Stable transfectants were selected according to hygromycin resistance. Because Gqs and Gqi contained an HA epitope, G-protein expression was detected by Western blotting analysis using anti-mouse HA monoclonal antibody and horseradish peroxidase (HRP)-conjugated secondary antibody, while functional expression of prostanoid receptors was detected by FLIPR screening (Matias et al., 2004). These stable cell lines were validated using previously published antagonists at 10 μM against serial dilutions of standard agonists by FLIPR functional assays for Ca^2+ Signaling (as described below).
(§3) Ca^2+ signaling studies were performed using a FLIPR TETRA system (Molecular Devices, Sunnyvale, Calif., USA) in the 384-format. This is a high-throughput instrument for cell-based assays to monitor Ca^2+ signaling associated with GPCRs and ion channels. Cells were seeded at a density of 5×10^4 cells/well in BioCoat poly-D-lysine coated, black wall, clear bottom 384-well plates (BD Biosciences, Franklin lakes, NJ, USA) and allowed to attach overnight in an incubator at 37° C. The cells were then washed twice with HBSS-HEPES buffer (Hanks' balanced salt solution without bicarbonate and phenol red, 20 mM HEPES, pH 7.4) using an ELx405 Select CW Microplate Washer (BioTek, Winooski, Vt., USA). After 60 min of dye-loading in the dark using the Ca^2+-sensitive dye Fluo-4AM (Invitrogen, Carlsbad, Calif., USA), at a final concentration of 2×10^−6M, the plates were washed 4 times with HBSS-HEPES buffer to remove excess dye and leaving 50 μl of buffer in each well. The plates were then placed in the FLIPR TETRA instrument and allowed to equilibrate at 37° C. Compounds were added in a 25 μl volume to each well to give final concentrations of 0.1 μM, 0.3 μM, 1 μM, 3 μM, 10 μM, and 30 μM; or 0.067 μM, 0.1 μM, 0.2 μM, 0.3 μM, 0.67 μM, and 1 μM for cells over-expressing TP receptors. After 4.5 minutes, a 7-point serial dilution of the standard agonist for the corresponding receptor, in a 25 μl volume was injected at the final concentrations from 10^−11M to 10^−5M in 10-fold serial dilution increments for cells expressing human recombinant DP1, EP1, EP2, EP3, EP4, FP, and IP receptors. The dose range for the standard agonist for human recombinant TP receptors was from 10^−12M to 10^−6M. HBSS-HEPES buffer was used as the negative control for the standard agonists. Cells were excited with LED (light emitting diode) excitation at 470-495 nm and emission was measured through an emission filter at 515-575 nm. Assay plates were read for 3.5 minutes using the FLIPR^TETRA. The peak increase in fluorescence intensity was recorded for each well. On each plate, negative controls, dose response of positive controls, and co-treatments of antagonist-agonist for each dose were in triplicates. Standard agonists were as follows: DP=BW 245C, EP1-EP4=PGE2, FP=17-phenyl-PGF2α, IP=Cicaprost, and TP=U-46619. […]

Test [2] deals with T2, human prostanoid EP2 receptor (Homo sapiens, UniProt P43116).
T2 construct: expressed in transfected cells
Kind of test: FLIPR Ca2+ signaling PG antagonist assay, EP2 stable cell line. Particulars: HEK-293 EBNA cells, human recombinant EP2 with chimeric Gqs; standard agonist PGE2. The method, then: as §1, §2, §3

The target of test [3] is T3, human prostanoid TP receptor (Homo sapiens, UniProt P21731).
T3 construct: expressed in transfected cells
T3 sequence (P21731 1-343): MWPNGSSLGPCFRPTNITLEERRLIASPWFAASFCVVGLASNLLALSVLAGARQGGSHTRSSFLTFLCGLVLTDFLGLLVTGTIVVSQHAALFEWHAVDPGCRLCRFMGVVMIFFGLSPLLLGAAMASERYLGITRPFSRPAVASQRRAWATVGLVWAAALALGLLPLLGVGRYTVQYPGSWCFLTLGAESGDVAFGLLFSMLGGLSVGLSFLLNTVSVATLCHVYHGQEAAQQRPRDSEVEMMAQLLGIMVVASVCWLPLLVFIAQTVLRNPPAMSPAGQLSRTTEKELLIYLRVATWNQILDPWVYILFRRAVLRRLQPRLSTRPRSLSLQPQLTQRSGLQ
The test is described as follows: FLIPR Ca2+ signaling PG antagonist assay, TP stable cell line. Particulars: HEK-293 EBNA cells, human recombinant TP, no exogenous G-protein; standard agonist U-46619. The method, then: as §1, §2, §3

T2 sequence (P43116 whole entry): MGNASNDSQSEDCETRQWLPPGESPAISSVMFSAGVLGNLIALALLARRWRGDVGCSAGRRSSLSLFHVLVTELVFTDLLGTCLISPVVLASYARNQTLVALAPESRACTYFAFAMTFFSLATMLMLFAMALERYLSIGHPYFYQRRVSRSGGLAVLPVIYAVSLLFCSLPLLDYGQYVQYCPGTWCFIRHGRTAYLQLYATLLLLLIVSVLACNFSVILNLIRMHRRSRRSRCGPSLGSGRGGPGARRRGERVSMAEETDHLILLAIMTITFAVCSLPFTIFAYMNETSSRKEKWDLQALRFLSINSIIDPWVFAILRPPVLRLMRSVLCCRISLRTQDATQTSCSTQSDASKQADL

In the case of `Cc1nn(Cc2cc(Cl)ccc2OCC(C)C)c2ccc(C(=O)O)cc12` [Example 24, 1-(5-Chloro-2-Isobutoxy-Benzyl)-3-Methyl-1H-Indazole-5-Carboxylic Acid], the results for the Kb in test [1], in test [2] and in test [3] were 20 nM, 4500 nM and 80 nM, respectively.

In the case of `Cc1nn(Cc2cc(C(F)(F)F)ccc2OCC(C)C)c2ccc(C(=O)O)cc12` [Example 25, 1-(2-Isobutoxy-5-Trifluoromethyl-Benzyl)-3-Methyl-1H-Indazole-5-Carboxylic Acid], the values for the Kb in test [1], in test [2] and in test [3] were 27 nM, 9300 nM and 50 nM, respectively.

`CCC(CC)COc1ccc(C(F)(F)F)cc1Cn1nc(C)c2cc(C(=O)O)ccc21` [Example 26, 1-[2-(2-Ethyl-Butoxy)-5-Trifluoromethyl-Benzyl]-3-Methyl-1H-Indazole-5-Carboxylic Acid]: the Kb was 80 nM in test [1], ≥ 10000 nM in test [2] and 18 nM in test [3].

Consider `CCC(CC)COc1ccc(Br)cc1Cn1nc(C)c2cc(C(=O)O)ccc21` [Example 27, 1-[5-Bromo-2-(2-Ethyl-Butoxy)-Benzyl]-3-Methyl-1H-Indazole-5-Carboxylic Acid], for which the values for the Kb in test [1], in test [2] and in test [3] were 110 nM, 3640 nM and 20 nM, respectively.

Turning to `Cc1nn(Cc2cc(Br)ccc2OCC2(C)CC2)c2ccc(C(=O)O)cc12` [Example 28, 1-[5-Bromo-2-(1-Methyl-Cyclopropylmethoxy)-Benzyl]-3-Methyl-1H-Indazole-5-Carboxylic Acid], the Kb in test [1] was 43 nM; in test [2], 9200 nM; in test [3], 7 nM.

For `O=C(O)c1ccc2c(cnn2Cc2cc(C(F)(F)F)ccc2OCc2ccc(Cl)cc2)c1` [Example 32, 1-[2-(4-Chloro-Benzyloxy)-5-Trifluoromethyl-Benzyl]-1H-Indazole-5-Carboxylic Acid], the Kb was 210 nM in test [1], ≥ 10000 nM in test [2] and 50 nM in test [3].

In the case of `O=C(O)c1ccc2c(cnn2Cc2cc(C(F)(F)F)ccc2OCC2CCCC2)c1` [Example 33, 1-(2-Cyclopentylmethoxy-5-Trifluoromethyl-Benzyl)-1H-Indazole-5-Carboxylic Acid], the Kb is 70 nM in test [1], 2600 nM in test [2] and 1 nM in test [3].

With `O=C(O)c1cccc2c1cnn2Cc1cc(Cl)ccc1OCC1CC1` [Example 34, 1-(5-Chloro-2-Cyclopropylmethoxy-Benzyl)-1H-Indazole-4-Carboxylic Acid], the values for the antagonist equilibrium constant (Kb) in test [1], in test [2] and in test [3] were 70 nM, ≥ 10000 nM and 100 nM, respectively.

Regarding `O=C(O)c1cccc2nn(Cc3cc(Cl)ccc3OCC3CC3)cc12` [Example 35, 2-(5-Chloro-2-Cyclopropylmethoxy-Benzyl)-2H-Indazole-4-Carboxylic Acid], the results for the Kb in test [1], in test [2] and in test [3] were 4200 nM, ≥ 10000 nM and 1200 nM, respectively.

As to `CC(C)COc1ccc(Cl)cc1Cn1ncc2c(C(=O)O)cccc21` [Example 36, 1-(5-Chloro-2-Isobutoxy-Benzyl)-1H-Indazole-4-Carboxylic Acid], the Kb was 60 nM in test [1], 2900 nM in test [2] and 3 nM in test [3].

`CC(C)COc1ccc(Cl)cc1Cn1cc2c(C(=O)O)cccc2n1` [Example 37, 2-(5-Chloro-2-Isobutoxy-Benzyl)-2H-Indazole-4-Carboxylic Acid]: the figures for the Kb in test [1], in test [2] and in test [3] were 480 nM, ≥ 10000 nM and 200 nM, respectively.

For the compound `CCC(CC)COc1ccc(Cl)cc1Cn1ncc2c(C(=O)O)cccc21` [Example 38, 1-[5-Chloro-2-(2-Ethyl-Butoxy)-Benzyl]-1H-Indazole-4-Carboxylic Acid], the Kb is 70 nM in test [1], 2100 nM in test [2] and 3 nM in test [3].

As to `CCC(CC)COc1ccc(Cl)cc1Cn1cc2c(C(=O)O)cccc2n1` [Example 39, 2-[5-Chloro-2-(2-Ethyl-Butoxy)-Benzyl]-2H-Indazole-4-Carboxylic Acid], the results for the Kb in test [1], in test [2] and in test [3] were 1200 nM, ≥ 10000 nM and 110 nM, respectively.
